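A five-concentration, 48-hour dose response in 96-well plates underlies each endpoint, interpolated linearly between surrounding concentrations. GI50 is the concentration that inhibits growth by half.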 Calls of active or inactive are those of the source. Rule as the data show it: active = GI50 up to about 1.1 µM and inactive = higher.
Assays:
Test in all cases: NCI anticancer screen, dose series, 48 h
HOP-62 = system: HOP-62
Hs-578T = system: Hs-578T
IGROV-1 = system: IGROV-1
RPMI-8226 = system: RPMI-8226
OVCAR-5 = system: OVCAR-5
MDA-MB-435 = system: MDA-MB-435
HT-29 = system: HT-29
MCF7 = system: MCF7
SNB-19 = system: SNB-19
OVCAR-8 = system: OVCAR-8
EKVX = system: EKVX
PC-3 = system: PC-3
CCRF-CEM = system: CCRF-CEM
TK-10 = system: TK-10
HCT-116 = system: HCT-116
OVCAR-4 = system: OVCAR-4
A498 = system: A498
A549 = system: A549
SR = system: SR
NCI-H226 = system: NCI-H226

| Compound | GI50 (HOP-62) | GI50 (Hs-578T) | GI50 (IGROV-1) | GI50 (RPMI-8226) | GI50 (OVCAR-5) | GI50 (MDA-MB-435) | GI50 (HT-29) | GI50 (MCF7) | GI50 (SNB-19) | GI50 (OVCAR-8) | GI50 (EKVX) | GI50 (PC-3) | GI50 (CCRF-CEM) | GI50 (TK-10) | GI50 (HCT-116) | GI50 (OVCAR-4) | GI50 (A498) | GI50 (A549) | GI50 (SR) | GI50 (NCI-H226) |
| --- | --- | --- | --- | --- | --- | --- | --- | --- | --- | --- | --- | --- | --- | --- | --- | --- | --- | --- | --- | --- |
| Nc1ncnc2c1ccn2C/C=C/CO | > 100 µM (inactive) | > 100 µM (inactive) | > 100 µM (inactive) | > 100 µM (inactive) | > 100 µM (inactive) | > 100 µM (inactive) | > 100 µM (inactive) | > 100 µM (inactive) | > 100 µM (inactive) | > 100 µM (inactive) | > 100 µM (inactive) | > 100 µM (inactive) | > 100 µM (inactive) | > 100 µM (inactive) | > 100 µM (inactive) | > 100 µM (inactive) | > 100 µM (inactive) | > 100 µM (inactive) | – | – |
| CC(C)(C)OC(=O)NCCCC(=O)NC1(c2cc3ccccc3s2)CCCCC1 | 21.4 µM (inactive) | 24.6 µM (inactive) | 18 µM (inactive) | 11.7 µM (inactive) | – | 15.4 µM (inactive) | 13.1 µM (inactive) | 16.3 µM (inactive) | 34.8 µM (inactive) | 19 µM (inactive) | 8.26 µM (inactive) | – | 11.4 µM (inactive) | 29 µM (inactive) | 14 µM (inactive) | 20.5 µM (inactive) | 17.6 µM (inactive) | 25.6 µM (inactive) | 12.6 µM (inactive) | – |
| COc1ccccc1C(=O)c1c(NCc2ccccc2)c(=O)c1=O | > 100 µM (inactive) | > 100 µM (inactive) | 9.55 µM (inactive) | 32.9 µM (inactive) | > 100 µM (inactive) | > 100 µM (inactive) | > 100 µM (inactive) | 0.0254 µM (active) | > 100 µM (inactive) | > 100 µM (inactive) | > 100 µM (inactive) | > 100 µM (inactive) | 26.1 µM (inactive) | > 100 µM (inactive) | > 100 µM (inactive) | > 100 µM (inactive) | > 100 µM (inactive) | 0.424 µM (active) | – | > 100 µM (inactive) |
| CN(C)C(=O)N1N[C@H](c2ccccc2)[C@@H]1c1ccccc1 | > 100 µM (inactive) | – | > 100 µM (inactive) | > 100 µM (inactive) | – | > 100 µM (inactive) | – | > 100 µM (inactive) | > 100 µM (inactive) | > 100 µM (inactive) | > 100 µM (inactive) | 48 µM (inactive) | > 100 µM (inactive) | > 100 µM (inactive) | > 100 µM (inactive) | > 100 µM (inactive) | > 100 µM (inactive) | > 100 µM (inactive) | – | > 100 µM (inactive) |
| Cn1c2ccccc2c2c(-c3ccccc3)[n+]3ccccc3nc21 | 22.5 µM (inactive) | 34.8 µM (inactive) | 26.7 µM (inactive) | 17.8 µM (inactive) | 50.9 µM (inactive) | 20.6 µM (inactive) | 53.7 µM (inactive) | – | 65.8 µM (inactive) | 36.3 µM (inactive) | 36.1 µM (inactive) | 26.2 µM (inactive) | 30.5 µM (inactive) | 31.9 µM (inactive) | – | 61.7 µM (inactive) | > 100 µM (inactive) | 52.7 µM (inactive) | 23.9 µM (inactive) | – |
| O=C(/C=C\c1ccccc1)Oc1ccc(/C=C2\CCCCC2=O)cc1 | 72.1 µM (inactive) | 61 µM (inactive) | 37.8 µM (inactive) | 21.5 µM (inactive) | > 100 µM (inactive) | 26.8 µM (inactive) | 17.9 µM (inactive) | 39.5 µM (inactive) | > 100 µM (inactive) | 37.8 µM (inactive) | 57.1 µM (inactive) | 46.9 µM (inactive) | 4.98 µM (inactive) | 15.1 µM (inactive) | 26.1 µM (inactive) | > 100 µM (inactive) | > 100 µM (inactive) | 46.6 µM (inactive) | – | – |
| Cc1cc(Cc2c(F)c(F)c(C(c3cc(C)no3)c3c(F)c(F)c(F)c(F)c3F)c(F)c2F)on1 (stereo not given) | > 100 µM (inactive) | – | > 100 µM (inactive) | 33.5 µM (inactive) | > 100 µM (inactive) | 3.04 µM (inactive) | 6.08 µM (inactive) | 6.76 µM (inactive) | > 100 µM (inactive) | > 100 µM (inactive) | > 100 µM (inactive) | 69.5 µM (inactive) | 62.7 µM (inactive) | > 100 µM (inactive) | 18.3 µM (inactive) | > 100 µM (inactive) | > 100 µM (inactive) | > 100 µM (inactive) | > 25.7 µM (inactive) | > 100 µM (inactive) |
| O=C(O)CSCC(=O)O | > 100 µM (inactive) | > 100 µM (inactive) | > 100 µM (inactive) | – | > 100 µM (inactive) | > 100 µM (inactive) | > 100 µM (inactive) | – | > 100 µM (inactive) | > 100 µM (inactive) | > 100 µM (inactive) | > 100 µM (inactive) | > 100 µM (inactive) | > 100 µM (inactive) | > 100 µM (inactive) | > 100 µM (inactive) | > 100 µM (inactive) | > 100 µM (inactive) | > 100 µM (inactive) | > 100 µM (inactive) |
| O=C(c1ccc(Cl)cc1)N(C(=S)OCCOc1ccccc1)c1ccccc1 | 23 µM (inactive) | 46.9 µM (inactive) | 16.9 µM (inactive) | 18.1 µM (inactive) | 17 µM (inactive) | 17 µM (inactive) | 17.6 µM (inactive) | 16.1 µM (inactive) | 19.2 µM (inactive) | 20.3 µM (inactive) | 20.1 µM (inactive) | 21.1 µM (inactive) | 13.7 µM (inactive) | 29.4 µM (inactive) | 16.2 µM (inactive) | 18.6 µM (inactive) | 14.9 µM (inactive) | 16.3 µM (inactive) | – | – |
| C=C1OC(c2ccccc2NC)=NC12CCCCC2 | > 100 µM (inactive) | > 100 µM (inactive) | > 100 µM (inactive) | – | > 100 µM (inactive) | > 100 µM (inactive) | > 100 µM (inactive) | > 100 µM (inactive) | > 100 µM (inactive) | > 100 µM (inactive) | > 100 µM (inactive) | > 100 µM (inactive) | > 100 µM (inactive) | > 100 µM (inactive) | > 100 µM (inactive) | > 100 µM (inactive) | > 100 µM (inactive) | > 100 µM (inactive) | – | > 100 µM (inactive) |
| Cc1cccc(/C=N/NC(=S)N2CCCCCC2)n1 | 0.219 µM (active) | 9.59 µM (inactive) | < 0.0399 µM (active) | < 0.01 µM (active) | – | 1.3 µM (inactive) | < 0.01 µM (active) | < 0.01 µM (active) | 0.543 µM (active) | 0.0142 µM (active) | 0.288 µM (active) | < 0.0166 µM (active) | < 0.01 µM (active) | – | < 0.01 µM (active) | – | 0.449 µM (active) | 0.111 µM (active) | – | 1.33 µM (inactive) |
| NC(=O)CC1OC(=O)Cc2cc3c(c(O)c21)C(=O)c1c(O)cccc1C3=O (stereo not given) | – | – | 69.3 µM (inactive) | – | > 100 µM (inactive) | > 100 µM (inactive) | > 100 µM (inactive) | > 100 µM (inactive) | > 100 µM (inactive) | > 100 µM (inactive) | > 100 µM (inactive) | > 100 µM (inactive) | 59.8 µM (inactive) | > 100 µM (inactive) | > 100 µM (inactive) | > 100 µM (inactive) | 43.9 µM (inactive) | > 100 µM (inactive) | 43.7 µM (inactive) | > 100 µM (inactive) |
| C#CCCOC1(OC)N=NC(C)(C)O1 (stereo not given) | > 100 µM (inactive) | > 100 µM (inactive) | > 100 µM (inactive) | > 100 µM (inactive) | > 100 µM (inactive) | > 100 µM (inactive) | > 100 µM (inactive) | – | > 100 µM (inactive) | > 100 µM (inactive) | > 100 µM (inactive) | > 100 µM (inactive) | > 100 µM (inactive) | – | > 100 µM (inactive) | > 100 µM (inactive) | > 100 µM (inactive) | > 100 µM (inactive) | > 100 µM (inactive) | > 100 µM (inactive) |
| Cc1c(N/C=C(\C#N)C(=O)c2ccc(Cl)cc2)c(=O)n(-c2ccccc2)n1C | – | – | 96.8 µM (inactive) | 34.6 µM (inactive) | > 100 µM (inactive) | 34.9 µM (inactive) | – | 62.1 µM (inactive) | > 100 µM (inactive) | 91.8 µM (inactive) | > 100 µM (inactive) | > 100 µM (inactive) | 38.9 µM (inactive) | 32.9 µM (inactive) | 80.7 µM (inactive) | > 100 µM (inactive) | 48.8 µM (inactive) | > 100 µM (inactive) | – | 54 µM (inactive) |
| O=C(c1ccco1)N1CCCN(C(=O)c2ccco2)C1=S | 72.1 µM (inactive) | > 100 µM (inactive) | 41.6 µM (inactive) | > 100 µM (inactive) | > 100 µM (inactive) | > 100 µM (inactive) | > 100 µM (inactive) | 74.8 µM (inactive) | > 100 µM (inactive) | > 100 µM (inactive) | 2.32 µM (inactive) | 24.4 µM (inactive) | > 100 µM (inactive) | > 100 µM (inactive) | > 100 µM (inactive) | – | > 100 µM (inactive) | – | – | 36.4 µM (inactive) |
| NC(=O)NC(=O)c1cccc(C(=O)NC(N)=O)n1 | > 100 µM (inactive) | – | – | > 100 µM (inactive) | > 100 µM (inactive) | > 100 µM (inactive) | > 100 µM (inactive) | > 100 µM (inactive) | > 100 µM (inactive) | > 100 µM (inactive) | > 100 µM (inactive) | > 100 µM (inactive) | > 100 µM (inactive) | > 100 µM (inactive) | > 100 µM (inactive) | > 100 µM (inactive) | > 100 µM (inactive) | > 100 µM (inactive) | > 100 µM (inactive) | > 100 µM (inactive) |
